Columns and labels:
[1] = molecular target: MMP-9 (Homo sapiens, UniProt P14780); experiment: K(obs) of individual phage substrates (set of 1369); format: biochemical; settings: MMP9, individual phage substrates, set of 1369 peptides
[2] = molecular target: T1, MMP-2 (Homo sapiens, UniProt P08253); experiment: as above; format: biochemical; settings: MMP2
T1 sequence (P08253 110-660): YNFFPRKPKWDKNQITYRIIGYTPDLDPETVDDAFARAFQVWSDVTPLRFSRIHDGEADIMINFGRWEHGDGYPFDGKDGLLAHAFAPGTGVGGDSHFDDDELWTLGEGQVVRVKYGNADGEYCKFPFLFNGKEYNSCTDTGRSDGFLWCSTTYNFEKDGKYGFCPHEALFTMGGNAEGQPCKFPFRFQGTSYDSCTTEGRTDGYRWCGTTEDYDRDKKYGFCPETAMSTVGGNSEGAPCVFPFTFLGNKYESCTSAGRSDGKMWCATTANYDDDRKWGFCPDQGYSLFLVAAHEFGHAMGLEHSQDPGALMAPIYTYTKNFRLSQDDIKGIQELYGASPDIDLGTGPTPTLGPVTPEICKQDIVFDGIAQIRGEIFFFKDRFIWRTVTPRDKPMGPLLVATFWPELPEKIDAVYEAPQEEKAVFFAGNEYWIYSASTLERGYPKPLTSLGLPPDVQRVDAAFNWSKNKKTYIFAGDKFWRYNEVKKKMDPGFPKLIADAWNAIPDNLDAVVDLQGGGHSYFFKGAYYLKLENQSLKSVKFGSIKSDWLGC

[3] = tested on: MMP-2; experiment: Substrate phage display with NGS: relative probability (RP) of P3-P1' tetramer clusters; format: biochemical, human; settings: for avg_RP: MMP2 - no binning
[4] = dash in sequence marks cleavage position
[5] = individual phage substrate from the set of 1369 peptides, cleavage position marked by the dash in the sequence
[6] = '-' marks the cleavage position (P1-P1')
[7] = individual phage substrates, set of 1369 peptides, cleavage position marked by '-' in the sequence
[8] = average relative probability of the tetramer, redundant tetramers averaged out
[9] = average relative probability of the P3-P1' tetramer, redundant tetramers have been averaged out
[10] = average relative probability (RP) of the P3-P1' tetramer, redundant tetramers have been averaged out

Chain of MMP-9 (P14780 94-707): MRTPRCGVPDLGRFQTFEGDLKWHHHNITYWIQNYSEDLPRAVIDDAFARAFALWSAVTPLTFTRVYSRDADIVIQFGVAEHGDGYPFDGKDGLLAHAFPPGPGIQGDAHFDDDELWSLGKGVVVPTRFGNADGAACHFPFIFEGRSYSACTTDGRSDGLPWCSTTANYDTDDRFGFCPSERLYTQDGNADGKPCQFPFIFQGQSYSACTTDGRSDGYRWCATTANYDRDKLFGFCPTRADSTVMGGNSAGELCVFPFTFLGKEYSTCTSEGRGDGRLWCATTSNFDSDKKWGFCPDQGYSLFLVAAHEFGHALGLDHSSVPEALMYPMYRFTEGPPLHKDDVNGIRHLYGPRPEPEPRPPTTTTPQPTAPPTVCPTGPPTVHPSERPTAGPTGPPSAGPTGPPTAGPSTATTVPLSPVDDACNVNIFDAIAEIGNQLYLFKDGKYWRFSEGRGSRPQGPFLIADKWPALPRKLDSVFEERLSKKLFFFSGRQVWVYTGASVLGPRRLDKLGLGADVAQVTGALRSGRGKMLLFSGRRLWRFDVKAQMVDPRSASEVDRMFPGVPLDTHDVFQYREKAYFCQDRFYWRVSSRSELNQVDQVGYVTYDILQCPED

| Substance | Kobs [1, 4] | Kobs [2, 5] | Kobs [1, 6] | Kobs [2, 7] | further results |
| --- | --- | --- | --- | --- | --- |
| PSPRY-LTASG | 10866.7 M⁻¹ s⁻¹ | 12792.1 M⁻¹ s⁻¹ |  |  |  |
| TMAHP-LTASG |  |  | 4470.66 M⁻¹ s⁻¹ | 6688.74 M⁻¹ s⁻¹ |  |
| RTYSH-LTASG |  |  | 0 M⁻¹ s⁻¹ | 3079.62 M⁻¹ s⁻¹ |  |
| MKPVN-LTASG |  |  | 12792.1 M⁻¹ s⁻¹ | 12792.1 M⁻¹ s⁻¹ |  |
| GTVRH-LSTAS |  |  | 1925.41 M⁻¹ s⁻¹ | 6396.07 M⁻¹ s⁻¹ |  |
| QAAFH-LTASG |  |  | 3253.29 M⁻¹ s⁻¹ | 3964.21 M⁻¹ s⁻¹ |  |
| GQAWA-LGTAS |  |  | 355.093 M⁻¹ s⁻¹ | 484.315 M⁻¹ s⁻¹ |  |
| RGVWK-LTASG | 1071.29 M⁻¹ s⁻¹ | 0 M⁻¹ s⁻¹ |  |  |  |
| SGVRM-LRRTA |  |  | 2157.02 M⁻¹ s⁻¹ | 799.117 M⁻¹ s⁻¹ |  |
| GGSGP-LMLPF |  |  | 517.582 M⁻¹ s⁻¹ | 3964.21 M⁻¹ s⁻¹ |  |
| GLAYS-LQTAS | 2476.66 M⁻¹ s⁻¹ | 1561.44 M⁻¹ s⁻¹ |  |  |  |
| MAYQS-LTASG |  |  | 726.013 M⁻¹ s⁻¹ | 8941.32 M⁻¹ s⁻¹ |  |
| MFHLN-ITASG |  |  | 690.17 M⁻¹ s⁻¹ | 1373.05 M⁻¹ s⁻¹ |  |
| FRVEP-LTASG | 261.974 M⁻¹ s⁻¹ | 323.705 M⁻¹ s⁻¹ |  |  |  |
| GGSGR-LVLRV |  |  | 0 M⁻¹ s⁻¹ | 0 M⁻¹ s⁻¹ |  |
| GKVNN-LVTAS |  |  | 201.585 M⁻¹ s⁻¹ | 517.582 M⁻¹ s⁻¹ |  |
| SGHMH-MRSTA | 0 M⁻¹ s⁻¹ | 0 M⁻¹ s⁻¹ |  |  |  |
| GVINQ-LRTAS | 355.093 M⁻¹ s⁻¹ | 517.582 M⁻¹ s⁻¹ |  |  |  |
| GPAGH-LSTAS | 951.362 M⁻¹ s⁻¹ | 5889.62 M⁻¹ s⁻¹ |  |  |  |
| TTSAS-LTASG | 171.876 M⁻¹ s⁻¹ | 3165.09 M⁻¹ s⁻¹ |  |  |  |
| AIYRS-MTASG |  |  | 2916.17 M⁻¹ s⁻¹ | 3344.37 M⁻¹ s⁻¹ |  |
| RRPLR-ITASG | 12792.1 M⁻¹ s⁻¹ | 3165.09 M⁻¹ s⁻¹ |  |  |  |
| SKVLF-LTASG |  |  | 3079.62 M⁻¹ s⁻¹ | 3079.62 M⁻¹ s⁻¹ |  |
| SGVMK-LQKTA | 0 M⁻¹ s⁻¹ | 0 M⁻¹ s⁻¹ |  |  |  |
| GSGNS-LKRRT | 0 M⁻¹ s⁻¹ | 142.481 M⁻¹ s⁻¹ |  |  |  |
| LPTRW-LTASG |  |  | 4082.43 M⁻¹ s⁻¹ | 7815.03 M⁻¹ s⁻¹ |  |
| ANAMN-LTASG |  |  | 2761.81 M⁻¹ s⁻¹ | 1513.13 M⁻¹ s⁻¹ |  |

| Substance | Kobs [1, 4] | Kobs [2, 5] | Kobs [1, 6] | Kobs [2, 7] | further results |
| --- | --- | --- | --- | --- | --- |
| SGVNS-LFTTA | 0 M⁻¹ s⁻¹ | 323.705 M⁻¹ s⁻¹ |  |  |  |
| GGSGA-YTMVA | 551.253 M⁻¹ s⁻¹ | 726.013 M⁻¹ s⁻¹ |  |  |  |
| RSPLM-MTASG |  |  | 12792.1 M⁻¹ s⁻¹ | 4922.1 M⁻¹ s⁻¹ |  |
| SGVYR-LELTA | 0 M⁻¹ s⁻¹ | 113.394 M⁻¹ s⁻¹ |  |  |  |
| KWPER-LTASG | 1925.41 M⁻¹ s⁻¹ | 2038.8 M⁻¹ s⁻¹ |  |  |  |
| GRVAH-LRTAS |  |  | 1112.44 M⁻¹ s⁻¹ | 12792.1 M⁻¹ s⁻¹ |  |
| TTALW-LTASG | 4922.1 M⁻¹ s⁻¹ | 6131.32 M⁻¹ s⁻¹ |  |  |  |
| ATASF-LTASG |  |  | 27.918 M⁻¹ s⁻¹ | 5889.62 M⁻¹ s⁻¹ |  |
| NFGRP-LTASG |  |  | 726.013 M⁻¹ s⁻¹ | 912.511 M⁻¹ s⁻¹ |  |
| SWGLA-LTASG |  |  | 690.17 M⁻¹ s⁻¹ | 619.843 M⁻¹ s⁻¹ |  |
| HLFQW-LTASG | 0 M⁻¹ s⁻¹ | 7015.91 M⁻¹ s⁻¹ |  |  |  |
| GSGLE-LRVNT |  |  | 231.616 M⁻¹ s⁻¹ | 0 M⁻¹ s⁻¹ |  |
| DLPHC-LTASG | 355.093 M⁻¹ s⁻¹ | 619.843 M⁻¹ s⁻¹ |  |  |  |
| GGSGS-LRLFE |  |  | 0 M⁻¹ s⁻¹ | 0 M⁻¹ s⁻¹ |  |
| GGHQW-LRTAS | 0 M⁻¹ s⁻¹ | 2687.73 M⁻¹ s⁻¹ |  |  |  |
| VNVRN-LTASG | 5269.78 M⁻¹ s⁻¹ | 12792.1 M⁻¹ s⁻¹ |  |  |  |
| VSVDQ-LTASG | 0 M⁻¹ s⁻¹ | 0 M⁻¹ s⁻¹ |  |  |  |
| SGPLS-LRSTA |  |  | 12792.1 M⁻¹ s⁻¹ | 12792.1 M⁻¹ s⁻¹ |  |
| GDVRH-IFTAS | 261.974 M⁻¹ s⁻¹ | 231.616 M⁻¹ s⁻¹ |  |  |  |
| SGVGA-LNKTA | 56.119 M⁻¹ s⁻¹ | 836.403 M⁻¹ s⁻¹ |  |  |  |
| TTSLR-LTASG | 84.609 M⁻¹ s⁻¹ | 0 M⁻¹ s⁻¹ |  |  |  |
| TKVLW-LTASG |  |  | 10866.7 M⁻¹ s⁻¹ | 4763.33 M⁻¹ s⁻¹ |  |
| GVAKP-LWTAS |  |  | 2280.5 M⁻¹ s⁻¹ | 484.315 M⁻¹ s⁻¹ |  |
| VPPMP-LTASG |  |  | 12792.1 M⁻¹ s⁻¹ | 12792.1 M⁻¹ s⁻¹ |  |
| IEYLN-YTASG |  |  | 355.093 M⁻¹ s⁻¹ | 231.616 M⁻¹ s⁻¹ |  |
| SGVAP-LILTA |  |  | 142.481 M⁻¹ s⁻¹ | 0 M⁻¹ s⁻¹ |  |
| SGVAS-LMGTA | 8941.32 M⁻¹ s⁻¹ | 12792.1 M⁻¹ s⁻¹ |  |  |  |

| Substance | Kobs [1, 4] | Kobs [2, 5] | Kobs [1, 6] | Kobs [2, 7] | further results |
| --- | --- | --- | --- | --- | --- |
| SGPMS-LLDTA | 8941.32 M⁻¹ s⁻¹ | 2996.69 M⁻¹ s⁻¹ |  |  |  |
| PTLWR-ITASG | 0 M⁻¹ s⁻¹ | 386.839 M⁻¹ s⁻¹ |  |  |  |
| GSGSD-LKSKT | 355.093 M⁻¹ s⁻¹ | 12792.1 M⁻¹ s⁻¹ |  |  |  |
| GHAHH-LYTAS | 201.585 M⁻¹ s⁻¹ | 171.876 M⁻¹ s⁻¹ |  |  |  |
| GTPLG-QITAS |  |  | 5461.43 M⁻¹ s⁻¹ | 12792.1 M⁻¹ s⁻¹ |  |
| HLPTA-LTASG |  |  | 8941.32 M⁻¹ s⁻¹ | 12792.1 M⁻¹ s⁻¹ |  |
| MDLLS-LTASG | 0 M⁻¹ s⁻¹ | 1327.88 M⁻¹ s⁻¹ |  |  |  |
| RVPKL-LTASG | 4922.1 M⁻¹ s⁻¹ | 1870.4 M⁻¹ s⁻¹ |  |  |  |
| SGVNL-LLMTA |  |  | 0 M⁻¹ s⁻¹ | 27.918 M⁻¹ s⁻¹ |  |
| SGIES-MYVTA |  |  | 0 M⁻¹ s⁻¹ | 0 M⁻¹ s⁻¹ |  |
| GGSGA-LTMPL |  |  | 171.876 M⁻¹ s⁻¹ | 0 M⁻¹ s⁻¹ |  |
| HLVAW-LTASG |  |  | 10866.7 M⁻¹ s⁻¹ | 10866.7 M⁻¹ s⁻¹ |  |
| PGVRF-LTASG |  |  | 7815.03 M⁻¹ s⁻¹ | 8941.32 M⁻¹ s⁻¹ |  |
| SGVMR-LVVTA | 171.876 M⁻¹ s⁻¹ | 0 M⁻¹ s⁻¹ |  |  |  |
| QRVLP-LTASG | 2038.8 M⁻¹ s⁻¹ | 6396.07 M⁻¹ s⁻¹ |  |  |  |
| PGIAN-LTASG |  |  | 2218.08 M⁻¹ s⁻¹ | 7815.03 M⁻¹ s⁻¹ |  |
| LGNL |  |  |  |  | avg_RP [3, 8]: 33.3542 |
| PAAL [P3-P1' tetramer cluster] |  |  |  |  | avg_RP [3, 8]: 35.8015; relative probability (RP) ([3]; tetramer probability in MMP2 set / naive library, 200 nM protease, 2 h, 37°C): 35.8015; relative probability (RP) ([3]; tetramer projected onto MMP-2 cleavage sites determined by Prudova et al. (2010)): 35.8 |
| ASGL |  |  |  |  | avg_RP [3, 9]: 25.6721 |
| WAPL |  |  |  |  | avg_RP [3, 9]: 23.9342 |
| AFTM |  |  |  |  | avg_RP [3, 10]: 0 |
| FQWL |  |  |  |  | avg_RP [3, 10]: 13.3419 |
| ASRL |  |  |  |  | avg_RP [3, 10]: 6.8948 |
| FSQL |  |  |  |  | avg_RP [3, 9]: 9.0646 |
| PQAV |  |  |  |  | avg_RP [3, 10]: 23.1021 |

— article PMC7932537, “Quantitative profiling of protease specificity” (PLoS Computational Biology, 2021)
